According to ChEMBL document CHEMBL1201862, “PubChem BioAssay data set” (2004):
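Step 1: Grow cells in 96-well plates. Step 2: Expose to compound for 48 hours at 5 concentrations. Step 3: Interpolate endpoints linearly; if unreached, use highest concentration. At the GI50, growth is halved.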 Active and inactive are the calls of the source. No stated cut-off is given here; in the data, active = GI50 up to about 1.1 µM and inactive = higher.

Tests used:
Test in all cases: inhibition of tumour cell growth, NCI panel, 48 h
HOP-62 = system: HOP-62
786-0 = system: 786-0
K562 = system: K562
NCI/ADR-RES = system: NCI/ADR-RES
SF-539 = system: SF-539
MDA-N = system: MDA-N
CCRF-CEM = system: CCRF-CEM
SR = system: SR
RXF 393 = system: RXF 393
OVCAR-3 = system: OVCAR-3
UACC-62 = system: UACC-62
SK-OV-3 = system: SK-OV-3
A549 = system: A549
NCI-H460 = system: NCI-H460
MDA-MB-435 = system: MDA-MB-435
HCC 2998 = system: HCC 2998
NCI-H522 = system: NCI-H522
MDA-MB-231 = system: MDA-MB-231
RPMI-8226 = system: RPMI-8226
A498 = system: A498

| SMILES | GI50 (HOP-62) | GI50 (786-0) | GI50 (K562) | GI50 (NCI/ADR-RES) | GI50 (SF-539) | GI50 (MDA-N) | GI50 (CCRF-CEM) | GI50 (SR) | GI50 (RXF 393) | GI50 (OVCAR-3) | GI50 (UACC-62) | GI50 (SK-OV-3) | GI50 (A549) | GI50 (NCI-H460) | GI50 (MDA-MB-435) | GI50 (HCC 2998) | GI50 (NCI-H522) | GI50 (MDA-MB-231) | GI50 (RPMI-8226) | GI50 (A498) |
| --- | --- | --- | --- | --- | --- | --- | --- | --- | --- | --- | --- | --- | --- | --- | --- | --- | --- | --- | --- | --- |
| COc1ccc(C2(CC(C)C)CCN(S(=O)(=O)c3ccc(C)cc3)C2)cc1OC (centres undefined) | 45.5 µM (inactive) | 27.8 µM (inactive) | 2.88 µM (inactive) | 18.5 µM (inactive) | 37 µM (inactive) | 70.8 µM (inactive) | 17.9 µM (inactive) | 1.11 µM (active) | 34 µM (inactive) | 18.9 µM (inactive) | 43.9 µM (inactive) | 36.9 µM (inactive) | 27.2 µM (inactive) | 29.2 µM (inactive) | 21.8 µM (inactive) | 27.6 µM (inactive) | 25.8 µM (inactive) | > 100 µM (inactive) | – | – |
| NNC(=O)c1nn[nH]c1C(=O)NN | > 100 µM (inactive) | 15.5 µM (inactive) | > 100 µM (inactive) | > 100 µM (inactive) | – | > 100 µM (inactive) | > 100 µM (inactive) | > 100 µM (inactive) | > 100 µM (inactive) | > 100 µM (inactive) | – | – | > 100 µM (inactive) | > 100 µM (inactive) | > 100 µM (inactive) | > 100 µM (inactive) | – | > 100 µM (inactive) | > 100 µM (inactive) | – |
| C1CN2CCNCCN(CCN1)CC2 | > 100 µM (inactive) | > 100 µM (inactive) | > 100 µM (inactive) | > 100 µM (inactive) | > 100 µM (inactive) | > 100 µM (inactive) | 3.9 µM (inactive) | > 100 µM (inactive) | > 100 µM (inactive) | > 100 µM (inactive) | > 100 µM (inactive) | > 100 µM (inactive) | > 100 µM (inactive) | > 100 µM (inactive) | > 100 µM (inactive) | – | > 100 µM (inactive) | > 100 µM (inactive) | > 100 µM (inactive) | > 100 µM (inactive) |
| Nc1c2ccccc2nc2ccc3c(=O)cc(-c4ccccc4)oc3c12 | 0.94 µM (active) | 0.436 µM (active) | 0.272 µM (active) | 1.35 µM (inactive) | 1.33 µM (inactive) | 0.815 µM (active) | 0.445 µM (active) | 0.393 µM (active) | 1.32 µM (inactive) | 1.42 µM (inactive) | 1.6 µM (inactive) | 1.83 µM (inactive) | 1.4 µM (inactive) | 0.646 µM (active) | 1.27 µM (inactive) | 0.492 µM (active) | 1.25 µM (inactive) | 1.14 µM (inactive) | 0.473 µM (active) | – |
| COC1CC(OC2C(C)OC(OC3C(C)OC(OC4C(C)OC(O[C@H]5CC[C@@]6(C)C(=CC[C@]7(O)[C@@H]6C[C@@H](O)[C@@]6(C)[C@]7(O)CC[C@@]6(O)C(C)=O)C5)CC4OC)CC3OC)CC2OC)OC(C)C1O (some centres undefined) | > 12.5 µM (inactive) | > 12.5 µM (inactive) | > 12.5 µM (inactive) | > 12.5 µM (inactive) | > 12.5 µM (inactive) | > 12.5 µM (inactive) | > 12.5 µM (inactive) | > 12.5 µM (inactive) | – | > 12.5 µM (inactive) | > 12.5 µM (inactive) | > 12.5 µM (inactive) | > 12.5 µM (inactive) | – | > 12.5 µM (inactive) | > 12.5 µM (inactive) | > 12.5 µM (inactive) | > 12.5 µM (inactive) | > 12.5 µM (inactive) | – |
| COC(=O)NC1C(C)OC(OC2C/C=C(/C)C3C=CC4C(OC5CC(OC6CC(OC7CC(O)C(O)C(C)O7)C(OC7CC(O)C(OC)C(C)O7)C(C)O6)C(O)C(C)O5)C(C)CC(C)C4C3(C)C(=O)C3=C(O)C4(CC(C)C(CO)=CC4/C=C\2C)OC3=O)CC1(C)[N+](=O)[O-] (centres undefined) | 3.38 µM (inactive) | 2.44 µM (inactive) | – | 38.7 µM (inactive) | 17.8 µM (inactive) | 14 µM (inactive) | 3.29 µM (inactive) | 2.71 µM (inactive) | – | – | 4.14 µM (inactive) | – | 5.04 µM (inactive) | 2.06 µM (inactive) | 9.64 µM (inactive) | 3.49 µM (inactive) | 2.99 µM (inactive) | 12 µM (inactive) | 1.6 µM (inactive) | 25.6 µM (inactive) |
